{
  "source": "patent US8952024B2",
  "about": "“Herbicidal pyrimidone derivatives” (E I du Pont de Nemours and Company, priority 2009, dated 2015)",
  "assay_in_all_cases": "Test B pre-/postemergence plant response",
  "assay_type_in_all_cases": "in vivo",
  "key": {"[1]": {"system": "cocklebur (Xanthium strumarium)", "settings": "for pest or weed control at 16 g/ha: 16 g ai/ha; for pest or weed control at 16 g/ha / pest or weed control at 31 g/ha / pest or weed control at 62 g/ha: read-out: Plant response rating, Cocklebur; for pest or weed control at 31 g/ha: 31 g ai/ha; for pest or weed control at 62 g/ha: 62 g ai/ha", "procedure,_shortened": "(§1)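 Response scores were assigned visually after 13 to 15 days in a greenhouse, comparing treated pots with controls on a 0–100 scale where 100 denotes complete control. Preemergence treatments went onto freshly seeded loam/sand soil; postemergence treatments onto plants 2 to 18 cm tall.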"}, "[2]": {"system": "goosegrass (Eleusine indica)", "settings": "for pest or weed control at 16 g/ha: 16 g ai/ha; for pest or weed control at 16 g/ha / pest or weed control at 31 g/ha / pest or weed control at 62 g/ha: read-out: Plant response rating, Goosegrass; for pest or weed control at 31 g/ha: 31 g ai/ha; for pest or weed control at 62 g/ha: 62 g ai/ha", "procedure,_shortened": "as §1"}, "[3]": {"system": "giant foxtail (Setaria faberii)", "settings": "for pest or weed control at 16 g/ha: 16 g ai/ha; for pest or weed control at 16 g/ha / pest or weed control at 31 g/ha / pest or weed control at 62 g/ha: read-out: Plant response rating, Foxtail, Giant; for pest or weed control at 31 g/ha: 31 g ai/ha; for pest or weed control at 62 g/ha: 62 g ai/ha", "procedure,_shortened": "as §1"}, "[4]": {"system": "downy bromegrass (Bromus tectorum)", "settings": "for pest or weed control at 16 g/ha: 16 g ai/ha; for pest or weed control at 16 g/ha / pest or weed control at 31 g/ha / pest or weed control at 62 g/ha: read-out: Plant response rating, Bromegrass, Downy; for pest or weed control at 31 g/ha: 31 g ai/ha; for pest or weed control at 62 g/ha: 62 g ai/ha", "procedure,_shortened": "as §1"}, "[5]": {"system": "kochia (Kochia scoparia)", "settings": "for pest or weed control at 16 g/ha: 16 g ai/ha; for pest or weed control at 16 g/ha / pest or weed control at 31 g/ha / pest or weed control at 62 g/ha: read-out: Plant response rating, Kochia; for pest or weed control at 31 g/ha: 31 g ai/ha; for pest or weed control at 62 g/ha: 62 g ai/ha", "procedure,_shortened": "as §1"}, "[6]": {"system": "morningglory (Ipomoea coccinea)", "settings": "Ipomoea, post-emergence, Postemergence, read-out: Plant response rating, Morningglory", "procedure,_shortened": "as §1"}, "[7]": {"settings": "Preemergence, 125 g ai/ha, 0 to 100 scale"}, "[8]": {"settings": "Xanthium strumarium, pre-emergence, Preemergence, scale 0 to 100 (0 no effect, 100 complete control)"}, "[9]": {"settings": "Eleusine indica, pre-emergence, Preemergence, scale 0 to 100 (0 no effect, 100 complete control)"}, "[10]": {"settings": "Setaria faberi, pre-emergence, Preemergence, scale 0 to 100 (0 no effect, 100 complete control)"}, "[11]": {"settings": "Bromus tectorum, pre-emergence, Preemergence, scale 0 to 100 (0 no effect, 100 complete control)"}, "[12]": {"settings": "Bassia scoparia, pre-emergence, Preemergence, scale 0 to 100 (0 no effect, 100 complete control)"}},
  "note": "Like-named read-outs stand apart in the source and are kept apart here.",
  "data": [
    {"smiles": "O=C1CCCC(O)=C1C(=O)c1cnc(-c2ccccc2)n(-c2ccccc2)c1=O", "note": "[Compound 2, 5-[(2-hydroxy-6-oxo-1-cyclohexen-1-yl)carbonyl]-2,3-diphenyl-4(3H)-pyrimidinone]", "values": [
      {"measurement": "Cocklebur plant response rating", "setting": "[1]; [7]", "result": 80},
      {"measurement": "pest or weed control at 16 g/ha", "setting": "[1]; Xanthium strumarium, post-emergence, Postemergence, 0 to 100 scale", "result": 75, "unit": "%"},
      {"measurement": "pest or weed control at 31 g/ha", "setting": "[1]; Xanthium strumarium, post-emergence, Postemergence, scale 0 to 100 (0 no effect, 100 complete control)", "result": 80, "unit": "%"},
      {"measurement": "pest or weed control at 62 g/ha", "setting": "[1]; Xanthium strumarium, post-emergence, Postemergence, scale 0 (no effect) to 100 (complete control), 13 to 15 days", "result": 90, "unit": "%"},
      {"measurement": "pest or weed control at 125 g/ha", "setting": "[1]; Xanthium strumarium, post-emergence, Postemergence, 125 g ai/ha, visual rating after 13 to 15 days, scale 0 (no effect) to 100 (complete control)", "result": 95, "unit": "%"},
      {"measurement": "pest or weed control at 16 g/ha", "setting": "[1]; [8]", "result": 0, "unit": "%"},
      {"measurement": "pest or weed control at 31 g/ha", "setting": "[1]; [8]", "result": 0, "unit": "%"},
      {"measurement": "pest or weed control at 62 g/ha", "setting": "[1]; Xanthium strumarium, pre-emergence, Preemergence, scale 0 to 100, 0 no effect, 100 complete control", "result": 65, "unit": "%"},
      {"measurement": "pest or weed control at 16 g/ha", "setting": "[2]; Eleusine indica, post-emergence, Postemergence, 0 to 100 scale", "result": 80, "unit": "%"},
      {"measurement": "pest or weed control at 31 g/ha", "setting": "[2]; Eleusine indica, post-emergence, Postemergence, scale 0 to 100 (0 no effect, 100 complete control)", "result": 80, "unit": "%"},
      {"measurement": "pest or weed control at 62 g/ha", "setting": "[2]; Eleusine indica, post-emergence, Postemergence, scale 0 (no effect) to 100 (complete control), 13 to 15 days", "result": 90, "unit": "%"},
      {"measurement": "pest or weed control at 125 g/ha", "setting": "[2]; Eleusine indica, post-emergence, Postemergence, 125 g ai/ha, visual rating after 13 to 15 days, scale 0 (no effect) to 100 (complete control)", "result": 95, "unit": "%"},
      {"measurement": "pest or weed control at 16 g/ha", "setting": "[2]; [9]", "result": 0, "unit": "%"},
      {"measurement": "pest or weed control at 31 g/ha", "setting": "[2]; [9]", "result": 85, "unit": "%"},
      {"measurement": "pest or weed control at 62 g/ha", "setting": "[2]; Eleusine indica, pre-emergence, Preemergence, scale 0 to 100, 0 no effect, 100 complete control", "result": 100, "unit": "%"},
      {"measurement": "Goosegrass plant response rating", "setting": "[2]; [7]", "result": 100},
      {"measurement": "Foxtail, Giant plant response rating", "setting": "[3]; [7]", "result": 70},
      {"measurement": "pest or weed control at 16 g/ha", "setting": "[3]; Setaria faberi, post-emergence, Postemergence, 0 to 100 scale", "result": 70, "unit": "%"},
      {"measurement": "pest or weed control at 31 g/ha", "setting": "[3]; Setaria faberi, post-emergence, Postemergence, scale 0 to 100 (0 no effect, 100 complete control)", "result": 85, "unit": "%"},
      {"measurement": "pest or weed control at 62 g/ha", "setting": "[3]; Setaria faberi, post-emergence, Postemergence, scale 0 (no effect) to 100 (complete control), 13 to 15 days", "result": 85, "unit": "%"},
      {"measurement": "pest or weed control at 125 g/ha", "setting": "[3]; Setaria faberi, post-emergence, Postemergence, 125 g ai/ha, visual rating after 13 to 15 days, scale 0 (no effect) to 100 (complete control)", "result": 85, "unit": "%"},
      {"measurement": "pest or weed control at 16 g/ha", "setting": "[3]; [10]", "result": 0, "unit": "%"},
      {"measurement": "pest or weed control at 31 g/ha", "setting": "[3]; [10]", "result": 15, "unit": "%"},
      {"measurement": "pest or weed control at 62 g/ha", "setting": "[3]; Setaria faberi, pre-emergence, Preemergence, scale 0 to 100, 0 no effect, 100 complete control", "result": 20, "unit": "%"},
      {"measurement": "pest or weed control at 16 g/ha", "setting": "[4]; Bromus tectorum, post-emergence, Postemergence, 0 to 100 scale", "result": 20, "unit": "%"},
      {"measurement": "pest or weed control at 31 g/ha", "setting": "[4]; Bromus tectorum, post-emergence, Postemergence, scale 0 to 100 (0 no effect, 100 complete control)", "result": 35, "unit": "%"},
      {"measurement": "pest or weed control at 62 g/ha", "setting": "[4]; Bromus tectorum, post-emergence, Postemergence, scale 0 (no effect) to 100 (complete control), 13 to 15 days", "result": 60, "unit": "%"},
      {"measurement": "pest or weed control at 125 g/ha", "setting": "[4]; Bromus tectorum, post-emergence, Postemergence, 125 g ai/ha, visual rating after 13 to 15 days, scale 0 (no effect) to 100 (complete control)", "result": 80, "unit": "%"},
      {"measurement": "pest or weed control at 16 g/ha", "setting": "[4]; [11]", "result": 0, "unit": "%"},
      {"measurement": "pest or weed control at 31 g/ha", "setting": "[4]; [11]", "result": 0, "unit": "%"},
      {"measurement": "pest or weed control at 62 g/ha", "setting": "[4]; Bromus tectorum, pre-emergence, Preemergence, scale 0 to 100, 0 no effect, 100 complete control", "result": 0, "unit": "%"},
      {"measurement": "Bromegrass, Downy plant response rating", "setting": "[4]; [7]", "result": 5},
      {"measurement": "pest or weed control at 16 g/ha", "setting": "[5]; Bassia scoparia, post-emergence, Postemergence, 0 to 100 scale", "result": 55, "unit": "%"},
      {"measurement": "pest or weed control at 31 g/ha", "setting": "[5]; Bassia scoparia, post-emergence, Postemergence, scale 0 to 100 (0 no effect, 100 complete control)", "result": 60, "unit": "%"},
      {"measurement": "pest or weed control at 62 g/ha", "setting": "[5]; Bassia scoparia, post-emergence, Postemergence, scale 0 (no effect) to 100 (complete control), 13 to 15 days", "result": 75, "unit": "%"},
      {"measurement": "pest or weed control at 125 g/ha", "setting": "[5]; Bassia scoparia, post-emergence, Postemergence, 125 g ai/ha, visual rating after 13 to 15 days, scale 0 (no effect) to 100 (complete control)", "result": 80, "unit": "%"},
      {"measurement": "pest or weed control at 16 g/ha", "setting": "[5]; [12]", "result": 0, "unit": "%"},
      {"measurement": "pest or weed control at 31 g/ha", "setting": "[5]; [12]", "result": 100, "unit": "%"},
      {"measurement": "pest or weed control at 62 g/ha", "setting": "[5]; [12]", "result": 100, "unit": "%"},
      {"measurement": "Kochia plant response rating", "setting": "[5]; [7]", "result": 100},
      {"measurement": "pest or weed control at 16 g/ha", "setting": "[6]; 16 g ai/ha, 0 to 100 scale", "result": 55, "unit": "%"},
      {"measurement": "pest or weed control at 31 g/ha", "setting": "[6]; 31 g ai/ha, scale 0 to 100 (0 no effect, 100 complete control)", "result": 70, "unit": "%"},
      {"measurement": "pest or weed control at 62 g/ha", "setting": "[6]; 62 g ai/ha, scale 0 (no effect) to 100 (complete control), 13 to 15 days", "result": 80, "unit": "%"}
    ]}
  ]
}
